Earlier results as cited in patent US7329495B2 (Board of Regents, the University of Texas System, priority 2004, dated 2008).

Target: KIT protein (c-KIT K642E) (Homo sapiens, UniProt P10721, K642E)
Conditions: human GIST cell line, homozygous exon 13 c-KIT K642E

KIT protein (c-KIT K642E), sequence (P10721 26-976 K642E): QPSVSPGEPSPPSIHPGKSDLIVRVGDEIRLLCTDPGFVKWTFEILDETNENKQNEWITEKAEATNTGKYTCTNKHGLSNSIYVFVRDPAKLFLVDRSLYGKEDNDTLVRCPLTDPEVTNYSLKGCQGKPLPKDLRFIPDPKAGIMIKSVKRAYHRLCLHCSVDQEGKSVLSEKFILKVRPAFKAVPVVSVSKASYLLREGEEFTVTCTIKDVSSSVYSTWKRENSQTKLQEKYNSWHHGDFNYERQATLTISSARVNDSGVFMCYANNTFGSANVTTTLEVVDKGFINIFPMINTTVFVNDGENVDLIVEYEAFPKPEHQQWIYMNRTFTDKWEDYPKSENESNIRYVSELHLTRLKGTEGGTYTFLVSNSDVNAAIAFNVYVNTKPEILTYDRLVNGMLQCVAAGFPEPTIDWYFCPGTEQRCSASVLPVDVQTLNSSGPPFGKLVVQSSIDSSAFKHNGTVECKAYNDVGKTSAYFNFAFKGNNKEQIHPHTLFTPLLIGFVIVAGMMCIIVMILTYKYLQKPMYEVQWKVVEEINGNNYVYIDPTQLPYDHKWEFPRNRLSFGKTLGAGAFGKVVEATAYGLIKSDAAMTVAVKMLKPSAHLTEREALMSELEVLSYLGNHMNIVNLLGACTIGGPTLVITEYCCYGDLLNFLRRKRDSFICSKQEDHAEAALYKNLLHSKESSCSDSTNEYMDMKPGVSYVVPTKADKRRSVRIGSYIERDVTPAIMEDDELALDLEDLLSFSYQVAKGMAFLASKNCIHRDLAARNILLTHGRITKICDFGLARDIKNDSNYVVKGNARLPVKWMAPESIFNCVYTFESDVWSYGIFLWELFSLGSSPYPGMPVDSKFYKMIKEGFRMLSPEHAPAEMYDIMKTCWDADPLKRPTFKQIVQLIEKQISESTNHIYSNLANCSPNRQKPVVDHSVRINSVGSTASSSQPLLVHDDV

For `Cc1ccc(NC(=O)c2ccc(CN3CCN(C)CC3)cc2)cc1Nc1nccc(-c2cccnc2)n1` [imatinib], the “constitutive KIT tyrosine phosphorylation after introducing STI571 to the cells” value is given as “abolished”.
